# Positions of bridges follow the written chain, without caps; N, C: chain ends. Residues, ends and D or L forms follow the SMILES beside them.
# Tests used:
# MRSA agr-I = MRSA agr-I (Staphylococcus aureus, UniProt O07911); experiment: MRSA agr-I P3::YFP fluorescent reporter assay; format: cell-based
# MRSA agr-II = MRSA agr-II (Staphylococcus aureus, UniProt O33587); experiment: MRSA agr-II P3::YFP fluorescent reporter assay; format: cell-based
# MRSA agr-III = MRSA agr-III (Staphylococcus aureus, UniProt O33590); experiment: MRSA agr-III P3::YFP fluorescent reporter assay; format: cell-based
# MRSA agr-IV = MRSA agr-IV (Staphylococcus aureus, UniProt Q309Z2); experiment: MRSA agr-IV P3::YFP fluorescent reporter assay; format: cell-based; settings: for inhibition of MRSA agr-IV by synthetic AIP (in words): synthetic AIP dose response, 24 h fluorescence
# S. hominis agr-I = S. hominis agr-I P3::sGFP reporter assay (AH5009 + pCM41); format: cell-based, Staphylococcus hominis; settings: for S. hominis agr-I reporter growth (OD600): increasing concentrations of synthetic AIP; for effect on S. hominis agr-I fluorescent signal (in words): increasing doses of synthetic AIP, early signal
# S. hominis agr-II = S. hominis agr-II P3::sGFP reporter assay (AH4553 + pCM41); format: cell-based, Staphylococcus hominis; settings: for S. hominis agr-II reporter growth (OD600): increasing concentrations of synthetic AIP; for effect on S. hominis agr-II fluorescent signal (in words): increasing doses of synthetic AIP, early signal
# USA300 MRSA (strain LAC) = experiment: Murine dermonecrosis model; format: in vivo, BALB/c mice; settings: 10 or 50 μg synthetic AIP-II in DMSO mixed with 1 × 10^8 CFU MRSA, intradermal; vs vehicle; n = 10 per group; dose dependent
# MRSA strain LAC = experiment: Murine epicutaneous infection; format: in vivo, C57BL/6J mice
# S. epidermidis agr-I = S. epidermidis agr-I (Staphylococcus epidermidis, UniProt O86861); experiment: S. epidermidis agr-I P3::sGFP reporter assay; format: cell-based
# MRSA = settings: mouse model; cited from earlier work
# [1] = test system: S. hominis AH5009 AgrA-regulated genes; experiment: RNA-seq of apicidin-treated S. hominis agr-I; format: cell-based, Staphylococcus hominis
# [2] = test system: S. hominis AH5009 PSM-β1 production; experiment: Mass spectrometric detection of PSM-β1 in conditioned medium; format: cell-based, Staphylococcus hominis; settings: 100 μM apicidin or DMSO, 8 h; LC-MS; triplicate injections of biological triplicates
# [3] = cognate AIP, fluorescence at 8 h
# [4] = 100 μM apicidin vs DMSO, over 24 h
# [5] = 100 μM apicidin vs DMSO, 4-fold cutoff, false discovery rate P value ≤0.05
# [6] = RNA-seq, S. hominis AH5009, 100 μM apicidin vs DMSO, 8 h, biological triplicate
# [7] = RNA-seq, S. hominis AH5009, 100 μM apicidin vs DMSO, 8 h, outside 4-fold cutoff
# MRSA agr-II, sequence (O33587 entry or part of it): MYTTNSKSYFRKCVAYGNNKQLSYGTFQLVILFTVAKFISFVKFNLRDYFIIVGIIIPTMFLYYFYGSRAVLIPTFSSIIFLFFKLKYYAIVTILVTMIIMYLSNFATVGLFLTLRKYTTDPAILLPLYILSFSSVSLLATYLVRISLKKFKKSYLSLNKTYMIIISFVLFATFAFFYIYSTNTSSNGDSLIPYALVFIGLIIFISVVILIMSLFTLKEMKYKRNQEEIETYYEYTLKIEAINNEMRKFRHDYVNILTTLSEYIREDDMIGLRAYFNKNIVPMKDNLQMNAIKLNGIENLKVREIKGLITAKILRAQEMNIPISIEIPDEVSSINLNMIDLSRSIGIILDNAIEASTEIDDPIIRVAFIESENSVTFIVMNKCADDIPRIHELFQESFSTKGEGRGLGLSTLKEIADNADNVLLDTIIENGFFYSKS
# MRSA agr-I, sequence (O07911 entry or part of it): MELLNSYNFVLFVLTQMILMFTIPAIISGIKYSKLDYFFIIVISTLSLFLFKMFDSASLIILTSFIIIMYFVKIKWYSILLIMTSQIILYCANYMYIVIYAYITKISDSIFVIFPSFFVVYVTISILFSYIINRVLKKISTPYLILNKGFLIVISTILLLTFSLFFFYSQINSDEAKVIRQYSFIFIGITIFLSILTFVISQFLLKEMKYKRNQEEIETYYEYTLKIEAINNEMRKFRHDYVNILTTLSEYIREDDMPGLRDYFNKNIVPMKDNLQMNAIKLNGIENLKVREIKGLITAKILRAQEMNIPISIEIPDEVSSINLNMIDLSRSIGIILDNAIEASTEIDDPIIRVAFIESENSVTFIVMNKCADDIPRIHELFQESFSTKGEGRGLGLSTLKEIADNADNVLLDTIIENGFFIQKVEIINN
# MRSA agr-IV, sequence (Q309Z2 entry or part of it): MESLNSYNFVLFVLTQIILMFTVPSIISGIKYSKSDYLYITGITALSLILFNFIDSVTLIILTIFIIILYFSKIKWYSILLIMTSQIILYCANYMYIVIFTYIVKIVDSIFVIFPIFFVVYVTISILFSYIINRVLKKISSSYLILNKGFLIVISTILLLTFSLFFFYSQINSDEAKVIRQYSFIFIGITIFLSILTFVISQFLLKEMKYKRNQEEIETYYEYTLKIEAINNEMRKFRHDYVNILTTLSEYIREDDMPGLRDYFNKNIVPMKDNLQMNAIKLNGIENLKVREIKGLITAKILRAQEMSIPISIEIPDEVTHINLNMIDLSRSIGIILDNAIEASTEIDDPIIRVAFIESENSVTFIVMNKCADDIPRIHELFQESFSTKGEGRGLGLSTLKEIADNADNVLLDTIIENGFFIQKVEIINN
# MRSA agr-III, sequence (O33590 entry or part of it): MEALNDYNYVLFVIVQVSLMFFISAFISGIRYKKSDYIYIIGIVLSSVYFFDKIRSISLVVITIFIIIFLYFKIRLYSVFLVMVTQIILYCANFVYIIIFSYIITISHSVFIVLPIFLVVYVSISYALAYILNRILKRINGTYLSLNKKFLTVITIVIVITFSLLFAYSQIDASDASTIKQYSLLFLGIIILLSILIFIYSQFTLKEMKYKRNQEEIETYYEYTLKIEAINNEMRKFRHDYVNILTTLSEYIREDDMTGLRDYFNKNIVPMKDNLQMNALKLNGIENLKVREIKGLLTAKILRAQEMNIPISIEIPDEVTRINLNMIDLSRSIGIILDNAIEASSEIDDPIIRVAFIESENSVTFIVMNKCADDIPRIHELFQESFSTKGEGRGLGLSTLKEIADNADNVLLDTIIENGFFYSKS
# S. epidermidis agr-I, sequence (O86861 entry or part of it): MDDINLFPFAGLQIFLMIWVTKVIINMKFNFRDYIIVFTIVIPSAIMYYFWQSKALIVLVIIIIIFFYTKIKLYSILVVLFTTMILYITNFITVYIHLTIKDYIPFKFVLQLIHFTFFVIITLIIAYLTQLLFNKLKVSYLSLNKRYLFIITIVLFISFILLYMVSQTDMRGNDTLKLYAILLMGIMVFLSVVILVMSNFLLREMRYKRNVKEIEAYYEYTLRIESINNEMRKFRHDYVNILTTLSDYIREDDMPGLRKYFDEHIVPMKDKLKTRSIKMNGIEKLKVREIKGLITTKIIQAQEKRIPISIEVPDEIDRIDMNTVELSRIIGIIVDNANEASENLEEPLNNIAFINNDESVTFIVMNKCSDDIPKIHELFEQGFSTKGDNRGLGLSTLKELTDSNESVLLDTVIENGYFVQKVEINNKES
smiles,measurement,setting,value
C[C@@H]1NC(=O)[C@@H](NC(=O)[C@@H]2CCCN2C(=O)[C@H](CO)NC(=O)[C@H](Cc2ccc(O)cc2)NC(=O)[C@@H](N)CO)CSC(=O)[C@H](Cc2ccccc2)NC(=O)[C@H](Cc2ccc(O)cc2)NC(=O)[C@H]([C@@H](C)O)NC1=O [AIP-II] (H-SYSPCATYF; thioester 5-C; N-terminus assumed),IC50,MRSA agr-I,0.015 µM
same,IC50,MRSA agr-II,2.11 µM
same,IC50,MRSA agr-III,0.003 µM
same,IC50,MRSA agr-IV,1.13 µM
same,inhibition of MRSA agr-IV by synthetic AIP (in words),MRSA agr-IV,poorly inhibited
same,S. hominis agr-I reporter growth (OD600),S. hominis agr-I,no effect on reporter growth
same,IC50,"S. hominis agr-I; read-out: IC50, inhibition of S. hominis agr-I signaling, noncognate synthetic AIP dose response, relative fluorescence at 8 h, three independent experiments pooled",0.009 µM
same,concentration of synthetic AIP optimal to boost S. hominis agr-II fluorescent signal,S. hominis agr-II; [3],12.5 nM
same,S. hominis agr-II reporter growth (OD600),S. hominis agr-II,no effect on growth
same,dermonecrotic lesion size,USA300 MRSA (strain LAC),significantly smaller lesions
same,barrier function by transepithelial water loss (TEWL),"MRSA strain LAC; 10 or 50 μg synthetic AIP-II with 1 × 10^8 CFU MRSA on gauze, 72 h topical, vs vehicle, n = 10 per group",retained more of their barrier function
same,total CFU burden in epicutaneous lesions,"MRSA strain LAC; 10 or 50 μg synthetic AIP-II, 72 h postinfection",no differences in CFU between groups
same,gross morphology of the skin,"MRSA strain LAC; synthetic AIP-II-treated vs vehicle control mice, 72 hpi","less redness, scaling, and erythema"
CC[C@H](C)[C@H](NC(=O)[C@@H](N)[C@@H](C)O)C(=O)N[C@@H](CC(N)=O)C(=O)N[C@H](C(=O)N[C@H]1CSC(=O)[C@H](Cc2ccccc2)NC(=O)[C@H](Cc2ccc(O)cc2)NC(=O)CNC(=O)CNC1=O)[C@@H](C)O [AIP-IV] (H-TINTCGGYF; thioester 5-C; N-terminus assumed),IC50,MRSA agr-I,0.128 µM
same,IC50,MRSA agr-II,0.14 µM
same,IC50,MRSA agr-III,0.037 µM
same,inhibition of MRSA agr-IV by synthetic AIP (in words),MRSA agr-IV,not inhibited
same,S. hominis agr-I reporter growth (OD600),S. hominis agr-I,did not impact the growth
same,effect on S. hominis agr-I fluorescent signal (in words),S. hominis agr-I,slightly boosted early agr-I signaling
same,S. hominis agr-II reporter growth (OD600),S. hominis agr-II,did not impact the growth
same,effect on S. hominis agr-II fluorescent signal (in words),S. hominis agr-II,negligible effects on agr-II
CC(C)[C@H](NC(=O)[C@H](CC(N)=O)NC(=O)[C@H](Cc1ccc(O)cc1)NC(=O)[C@@H](N)CO)C(=O)N[C@H]1CSC(=O)[C@H](Cc2ccccc2)NC(=O)[C@H](Cc2ccc(O)cc2)NC(=O)CNC(=O)CNC1=O [AIP-I] (H-SYNVCGGYF; thioester 5-C),inhibition of MRSA agr-IV by synthetic AIP (in words),MRSA agr-IV,poorly inhibited
same,inhibition of S. epidermidis agr-I (in words),S. epidermidis agr-I; synthetic AIP dose response,poor inhibitor
same,S. epidermidis agr-I early fluorescent signal,"S. epidermidis agr-I; synthetic AIP, first 8 h of incubation",boosted the fluorescent signal
same,concentration of synthetic AIP that significantly boosted S. hominis agr-I fluorescent signal,S. hominis agr-I; [3],≥ 25 nM
same,S. hominis agr-I reporter growth (OD600),S. hominis agr-I,no effect on growth
same,S. hominis agr-II reporter growth (OD600),S. hominis agr-II,no impact on reporter growth
same,IC50,"S. hominis agr-II; read-out: IC50, inhibition of S. hominis agr-II fluorescent signaling, noncognate synthetic AIP dose response, relative fluorescence at 8 h, three independent experiments pooled",0.007 µM
same,MRSA-associated AD symptoms,MRSA,effectively mitigates MRSA-associated AD symptoms
CC(C)[C@H](NC(=O)[C@@H](NC(=O)[C@H](CCC(N)=O)NC(=O)[C@@H](N)CO)[C@@H](C)O)C(=O)N[C@H]1CSC(=O)[C@H](Cc2ccccc2)NC(=O)[C@H](Cc2ccc(O)cc2)NC(=O)CNC(=O)[C@H](CO)NC1=O [AIP-V] (H-SQTVCSGYF; thioester 5-C; N-terminus assumed),IC50,MRSA agr-I,0.043 µM
same,IC50,MRSA agr-II,0.059 µM
same,IC50,MRSA agr-III,0.004 µM
same,IC50,MRSA agr-IV,3.81 µM
same,inhibition of MRSA agr-IV by synthetic AIP (in words),MRSA agr-IV,poorly inhibited
same,S. hominis agr-I reporter growth (OD600),S. hominis agr-I,did not impact the growth
same,effect on S. hominis agr-I fluorescent signal (in words),S. hominis agr-I,weak to negligible effects on agr-I
same,S. hominis agr-II reporter growth (OD600),S. hominis agr-II,did not impact the growth
same,effect on S. hominis agr-II fluorescent signal (in words),S. hominis agr-II,modestly inhibited agr-II
CCC(=O)CCCCC[C@@H]1NC(=O)[C@H]2CCCCN2C(=O)[C@H]([C@@H](C)CC)NC(=O)[C@H](Cc2cn(OC)c3ccccc23)NC1=O [apicidin],S. hominis agr-I P3::sGFP growth (OD600),S. hominis agr-I; [4],no effect on growth
same,S. hominis agr-I signaling (P3::sGFP fluorescence),S. hominis agr-I; [4],inhibited S. hominis agr-I signaling
same,number of genes downregulated,[1]; [5],40 genes
same,number of genes significantly upregulated,[1]; [5],7 genes
same,"Fold change, MOV58_00040 serine--tRNA ligase",[1]; [6],-5.87 fold
same,"Fold change, MOV58_00405 arsenate reductase",[1]; [6],-5.32 fold
same,"Fold change, MOV58_00410 anion permease",[1]; [6],-4.39 fold
same,"Fold change, MOV58_00550 (S)-acetoin forming diacetyl reductase",[1]; [6],-7.89 fold
same,"Fold change, MOV58_01010 acetoin reductase/dehydrogenase",[1]; [6],-5.45 fold
same,"Fold change, MOV58_01015 yxel choloylglycine hydrolase family protein",[1]; [6],-4.94 fold
same,"Fold change, MOV58_01105 excinuclease ABC subunit UvrA",[1]; [6],8.12 fold
same,"Fold change, MOV58_01110 arylamine N-acetyltransferase",[1]; [6],9.09 fold
same,"Fold change, MOV58_01115 ABC2 transporter permease",[1]; [6],9.05 fold
same,"Fold change, MOV58_01120 ABC transporter ATP binding protein btuD",[1]; [6],10.45 fold
same,"Fold change, MOV58_01125 DUF3169 family protein",[1]; [6],19.01 fold
same,"Fold change, MOV58_01130 helix turn helix transcriptional regulator",[1]; [6],18.5 fold
same,"Fold change, MOV58_02040 aldehyde dehydrogenase family protein",[1]; [6],-4.94 fold
same,"Fold change, MOV58_05440 hypothetical protein",[1]; [6],-5.09 fold
same,"Fold change, MOV58_05705 hypothetical protein",[1]; [6],-4.08 fold
same,"Fold change, MOV58_05710 hypothetical protein",[1]; [6],-6.86 fold
same,"Fold change, MOV58_05715 fructose-bisphosphatase class III",[1]; [6],-6.94 fold
same,"Fold change, MOV58_05720 hypothetical protein",[1]; [6],-5.64 fold
same,"Fold change, MOV58_05820 hypothetical protein",[1]; [6],-9.59 fold
same,"Fold change, MOV58_06035 universal stress protein",[1]; [6],-4.69 fold
same,"Fold change, MOV58_06695 RNA polymerase sigma factor RpoD",[1]; [6],-10.14 fold
same,"Fold change, MOV58_07655 hypothetical protein",[1]; [6],4.07 fold
same,"Fold change, MOV58_07775 hypothetical protein",[1]; [6],-4.58 fold
same,"Fold change, MOV58_07810 MerR family transcriptional regulator",[1]; [6],-4.32 fold
same,"Fold change, MOV58_08480 beta class phenol soluble modulin",[1]; [6],-11.36 fold
same,"Fold change, MOV58_08485 beta class phenol soluble modulin",[1]; [6],-11.33 fold
same,"Fold change, MOV58_08490 beta class phenol soluble modulin",[1]; [6],-9.37 fold
same,"Fold change, MOV58_08495 beta class phenol soluble modulin",[1]; [6],-8.82 fold
same,"Fold change, MOV58_09035 hypothetical protein",[1]; [6],-4.5 fold
same,"Fold change, MOV58_09040 IDEAL domain containing protein",[1]; [6],-6.02 fold
same,"Fold change, MOV58_09615 Hypothetical protein",[1]; [6],-4.82 fold
same,"Fold change, MOV58_09645 hypothetical protein",[1]; [6],-5.25 fold
same,"Fold change, MOV58_09650 hypothetical protein",[1]; [6],-5.02 fold
same,"Fold change, MOV58_09655 hypothetical protein",[1]; [6],-4.73 fold
same,"Fold change, MOV58_09715 phosphoglycerate kinase",[1]; [6],-6.94 fold
same,"Fold change, MOV58_09720 type I glyceraldehyde-3-phosphate dehydrogenase",[1]; [6],-4.93 fold
same,"Fold change, MOV58_09725 CggR, central glycolytic genes regulator",[1]; [6],-7.22 fold
same,"Fold change, MOV58_09730 hypothetical",[1]; [6],-5.22 fold
same,"Fold change, MOV58_10080 fructose-specific PTS transporter subunit EIIC",[1]; [6],-4.31 fold
same,"Fold change, MOV58_10085 1-phosphofruktokinase",[1]; [6],-22.43 fold
same,"Fold change, MOV58_10090 DeoR/GlpR family DNA-binding transcription regulator",[1]; [6],-27.93 fold
same,"Fold change, MOV58_10435 alpha/beta hydrolase",[1]; [6],-6.85 fold
same,"Fold change, MOV58_10445 Hypothetical protein",[1]; [6],-10.93 fold
same,"Fold change, MOV58_10515 flavodoxin family protein",[1]; [6],-5.24 fold
same,"Fold change, MOV58_10990 Hypothetical protein",[1]; [6],-4.65 fold
same,"Fold change, MOV58_11890 LytTR family DNA binding domain containing protein",[1]; [6],-7.12 fold
same,"Fold change, MOV58_11895 DUF3021 domain-containing protein",[1]; [6],-5.21 fold
same,"RNAIII expression, down -fold",[1]; [7],3.40 fold
same,"agrB expression, down -fold",[1]; [7],2.89 fold
same,"agrD expression, down -fold",[1]; [7],3.08 fold
same,PSM-β1 presence in S. hominis cultures,[2],"present only in S. hominis cultures treated with DMSO, not in those treated with apicidin"

# Source: PMC9239047 (mBio, 2022)
